Experimental data published in patent US9957236B2, “Selective inhibitors interfering with fibroblast growth factor receptor and FRS2 interaction for the prevention and treatment of cancer and other diseases” (LIMITED LIABILITY COMPANY “RUSSIAN PHARMACEUTICAL …, priority 2014, dated 2018).

Assays:
[1] = target: T1, FGFR1 (Homo sapiens, UniProt P11362); assay: FGFR1 phosphorylation in breast cancer cells MDA MB 134; assay type: cell-based; details: MDA MB 134 cells
T1 construct: endogenous in cells; host or cells: HUVEC, Caki-1, KATO III
T1 sequence (P11362 22-822): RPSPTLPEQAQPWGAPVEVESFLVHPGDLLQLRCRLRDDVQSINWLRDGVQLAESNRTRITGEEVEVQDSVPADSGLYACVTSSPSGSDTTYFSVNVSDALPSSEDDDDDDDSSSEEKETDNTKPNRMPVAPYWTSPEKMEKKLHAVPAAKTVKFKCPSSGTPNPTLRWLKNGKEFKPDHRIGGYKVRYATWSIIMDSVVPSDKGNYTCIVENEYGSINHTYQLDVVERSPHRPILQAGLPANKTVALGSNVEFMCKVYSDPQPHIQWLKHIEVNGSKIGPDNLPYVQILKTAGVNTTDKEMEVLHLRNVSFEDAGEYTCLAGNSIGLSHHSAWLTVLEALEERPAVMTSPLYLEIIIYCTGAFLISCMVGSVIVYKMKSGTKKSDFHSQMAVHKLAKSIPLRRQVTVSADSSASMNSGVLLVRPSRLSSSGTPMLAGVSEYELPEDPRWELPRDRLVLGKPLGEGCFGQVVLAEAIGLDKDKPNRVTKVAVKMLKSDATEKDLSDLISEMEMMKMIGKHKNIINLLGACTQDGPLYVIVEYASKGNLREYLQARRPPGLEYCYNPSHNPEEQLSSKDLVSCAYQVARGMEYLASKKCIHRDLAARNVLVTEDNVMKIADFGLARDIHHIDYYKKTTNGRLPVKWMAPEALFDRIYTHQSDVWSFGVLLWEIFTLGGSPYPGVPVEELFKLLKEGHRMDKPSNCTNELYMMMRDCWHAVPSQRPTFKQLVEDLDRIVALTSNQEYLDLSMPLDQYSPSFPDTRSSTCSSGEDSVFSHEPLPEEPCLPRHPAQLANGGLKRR
Excerpt: (§1) The purpose of this research was assessment of specific action of inhibitor RPT835 specified in this invention with formula II, on interaction of […] and FRS2 and assessment of influence on interaction of other types of FGFR and FRS2. For the experiment, 2 cell lines were selected: • stomach cancer KATO III, expressing FGFR2, and • breast cancer MDA MB 134, expressing FGFR1.
(§2) The research procedure was the same as in the previous examples: the cells were cultivated in presence of RPT835 followed by stimulation with FGF-2 and heparin. The other part of the cells was cultivated in presence of RPT835. Phosphorylation of FGFR1 (in breast cancer cells) and FGFR2 (in stomach cancer cells), and also FRS2a (in the both cell lines) and some intracellular kinases (in breast cancer cells) was assessed using manual and automated Western blotting.

[2] = tested on: intracellular kinases; assay: Intracellular kinases phosphorylation in breast cancer cells MDA MB 134; assay type: cell-based; details: MDA MB 134 cells
Excerpt: as §1, §2

[3] = tested on: SKOV3 ovarian cancer cells; assay: Crystal Violet proliferation assay, SKOV3; assay type: cell-based; details: SKOV3, low FGFR2 expression; bFGF 100 ng/ml, 7 days
Excerpt: This research used additional cell lines: SKOV3 (ovarian cancer, ATCC # HTB-77), HS578T (breast cancer, ATCC # HTB-126), T47D (breast cancer, ATCC #HTB-1336), modified line of non-small cells lung cancer A549, line of metastatic melanoma of skin Mel Kor (RF Patent No. 2287578), and additional study of antiangiogenic activity—cell line SVEC-4-10 (endothelial cells, ATCC #CRL-2181).
The cells were cultivated in environment RPMI-1640 (PANECO) (SKOV3, HS578T, T47D, Mel-Kor) or DMEM (PANECO) (SVEC-4-10) containing 10% of embryonal serum cattle (FCS, HyClone), 2 mM glutamine (PANECO), antibiotics (100 IU/mL penicillin and […] streptomycin (all PANECO)) at 37° C. and 5% CO2. Cells at 70-80% monolayer were used for the experiments.
The cells were planted in low density (30 t of cells/ml) in triplets on a 96-cavity plate in an environment containing 0.1% of FCS serum. […] Growth of cells was determined by the modified “Crystal Violet mitogenic method” for 7 days after the experiment start. […] The dye was dissolved in ethanol and measured on a spectrophotometer at 540-560 nm. The curve of cell proliferative activity inhibition was built by the dependence of the percent of the cell quantity (Y axis) on concentration of inhibitor RPT835 in the cavity of the plate (X axis). […]

[4] = tested on: triple negative breast cancer SUM52PE; assay: Tumor growth of SUM52PE xenograft in nude mice; assay type: in vivo
Procedure: Females of immunodeficient mice (nude) at the age of 8 weeks were administered 2×10^6 tumor cells of human cell lines with various expression of FGFR2: • cell line of triple-negative breast cancer SUM52PE strongly expressing FGFR2 (purchased from Asterand, Inc. (Detroit, Mich.) • cell line of triple negative breast cancer HS578T weakly expressing FGFR2 (purchased from ATCC (CRL-125) • cell line of non-small cell lung cancer NCI-H226 not expressing FGFR2 (purchased from ATCC (CRL-5826)
After the tumor growth got established (1 mm^3), the mice were divided into control and treatment groups in accordance with the tumor type.
Control group 1 (N=10): SUM52PE, administration of water through a stomach tube, daily.
Treatment group 1 (N=10): SUM52PE, administration of inhibitor RPT835 through a stomach tube in a dose of 30 mg/kg, daily.
Size of tumor and weight of animals were measured every 3 day. The mice underwent euthanasia when the tumor reached the size of 2,000 mm^3 or on the 60 day of the experiment.

[5] = target: T2, FRS2 (Homo sapiens, UniProt Q8WU20); assay: FRS2 phosphorylation in FGF-2/heparin-stimulated KATO III cells (Western blotting, Wes); assay type: cell-based; set-up: endogenous in cells
T2 sequence (Q8WU20 1-508): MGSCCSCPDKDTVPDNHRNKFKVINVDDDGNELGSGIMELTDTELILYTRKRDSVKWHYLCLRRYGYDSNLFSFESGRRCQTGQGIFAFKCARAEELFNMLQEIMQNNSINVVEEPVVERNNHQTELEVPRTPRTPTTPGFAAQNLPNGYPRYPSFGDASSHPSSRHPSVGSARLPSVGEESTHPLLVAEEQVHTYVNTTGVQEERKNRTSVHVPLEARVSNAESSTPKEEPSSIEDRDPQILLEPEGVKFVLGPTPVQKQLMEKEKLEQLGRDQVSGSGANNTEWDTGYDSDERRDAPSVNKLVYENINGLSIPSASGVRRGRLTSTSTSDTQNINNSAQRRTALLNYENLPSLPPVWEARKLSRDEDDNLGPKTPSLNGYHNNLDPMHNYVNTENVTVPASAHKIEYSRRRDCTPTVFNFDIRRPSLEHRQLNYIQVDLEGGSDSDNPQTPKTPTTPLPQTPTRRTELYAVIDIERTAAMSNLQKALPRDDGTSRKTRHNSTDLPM
Procedure: For assessment of the effect of RPT835 inhibitor characterized in this invention with formula II, stomach cancer cells KATO III, which express FGFR2, were used for FRS2 phosphorylation. […] RPT835 was added in various concentrations. A part of the cells was left without adding the inhibitor, and a part of the cells—without adding either inhibitor, or stimulating agents (control group).
Two standard methods for assessment of the phosphorylation level of FGFR and FRS2: • Western blotting using manual work; • Automatic capillary electrophoresis and immunodetection using automatic system Wes™ (ProteinSimple; SantaClara, Calif.).
as §1, §2

Cc1cc([N+](=O)[O-])c(NS(=O)(=O)c2cccc(C(=O)O)c2)cc1-c1cccnc1 [RPT835, 3-(N-(4-methyl-2-nitro-5-(pyridin-3-yl)phenyl)sulfamoyl)benzoic acid]
phosphorylation of FGFR1 [1]: did not have influence | phosphorylation of intracellular kinases [2]: did not have influence | inhibition of proliferative activity [3]: moderate effect | Slowdown of the tumor growth ([4]; 30 day, 30 mg/kg daily): 60.2% | average size of the tumor ([4]; 30 day, 30 mg/kg daily through a stomach tube): 1,080.7±49 mm3 | Size of tumor (median) ([4]; Day 7, 30 mg/kg daily through a stomach tube): 48.0 mm3 | Size of tumor (median) ([4]; Day 10, 30 mg/kg daily through a stomach tube): 112.0 mm3 | Size of tumor (median) ([4]; Day 13, 30 mg/kg daily through a stomach tube): 181.0 mm3 | Size of tumor (median) ([4]; Day 16, 30 mg/kg daily through a stomach tube): 256.0 mm3 | Size of tumor (median) ([4]; Day 19, 30 mg/kg daily through a stomach tube): 417.0 mm3 | Size of tumor (median) ([4]; Day 22, 30 mg/kg daily through a stomach tube): 591.0 mm3 | Size of tumor (median) ([4]; Day 25, 30 mg/kg daily through a stomach tube): 831.5 mm3 | Size of tumor (median) ([4]; Day 28, 30 mg/kg daily through a stomach tube): 958.5 mm3 | Size of tumor (median) ([4]; Day 31, 30 mg/kg daily through a stomach tube): 1,088.0 mm3 | Size of tumor (median) ([4]; Day 34, 30 mg/kg daily through a stomach tube): 1,134 mm3 | Size of tumor (median) ([4]; Day 37, 30 mg/kg daily through a stomach tube): 1,174 mm3 | Size of tumor (median) ([4]; Day 40, 30 mg/kg daily through a stomach tube): 1,208 mm3 | IC50 ([5]; FGF-2 and heparin stimulation, read-out: concentration of the semi-maximal inhibiting (IC50) of FRS2 phosphorylation): < 10 nM | Suppression of FRS2α phosphorylation ([5]; concentration of 10 nM): > 50% | phosphorylation of FRS2α (FGFR2 system) ([5]; dose of 100 nM): completely decreased phosphorylation of FRS2α (FGFR2 system) to the initial level
